Measured values: ChEMBL document CHEMBL1155022, “Aerucyclamides A and B: isolation and synthesis of toxic ribosomal heterocyclic peptides from the cyanobacterium Microcystis aeruginosa PCC 7806” (J Nat Prod, 2008)

Assay: Acute grazer toxicity against Thamnocephalus platyurus after 24 hrs
Format: organism-based
Conditions: in vivo

Compound: CC[C@H](C)[C@@H]1NC(=O)c2csc(n2)[C@@H]([C@@H](C)CC)NC(=O)c2csc(n2)CNC(=O)[C@H]2N=C1O[C@@H]2C [AERUCYCLAMIDE B]
- LC50 at 24 h: 33.8 µM

Compound: CC[C@H](C)[C@@H]1NC(=O)[C@H]2CSC(=N2)[C@@H]([C@@H](C)CC)NC(=O)c2csc(n2)CNC(=O)[C@H]2N=C1O[C@@H]2C [AERUCYCLAMIDE A]
- LC50 at 24 h: 30.5 µM
